From patent US7361633B2, “Screening method and anti-tumor drug candidate obtained therefrom” (Ardana Bioscience Limited, priority 2002, dated 2008)
“Also recorded” adds a separate entry of the source. Square brackets hold non-standard residues; d marks the D form. Peptide text beside a SMILES is read from it. dPhe(4-Cl) = N[C@H](Cc1ccc(Cl)cc1)C(=O)O; d2Nal = N[C@H](Cc1ccc2ccccc2c1)C(=O)O; dCit = NC(=O)NCCC[C@@H](N)C(=O)O; d3Pal = N[C@H](Cc1cccnc1)C(=O)O; pGlu = O=C1CC[C@@H](C(=O)O)N1

Tests used:
[1] = system: PTX-sensitive/Gαi-dependent MAPK isoform activation; test: PTX-sensitive/Gαi-dependent MAPK isoform activation (data not shown); assay type: cell-based
[2] = system: androgen-resistant tumor cells; settings: compared with androgen-dependent prostate cancers; Jungwirth et al; cited from earlier work
[3] = system: human JEG-3 choriocarcinoma cells; test: Anti-proliferative effect on JEG-3 cells, viable cell count after 5 days; assay type: cell-based; settings: 5 days continuous treatment, trypan blue exclusion
Procedure: (§1) Low cell density JEG-3 cell subcultures were treated for 5 days continuously with the indicated doses of GnRH I (a), GnRH II (b), antagonist 135-18 (c) or antagonist 135-25 (d) added directly to Dulbecco's modified Eagles medium supplemented with 10% FCS, glutamine and penicillin/streptomycin. Ligands were replenished every 24 h. At the end of the stimulation period cells were removed from the growth plates with trypsin and mixed with trypan blue dye (enters non-viable cells). Only viable cells were therefore counted using a haemocytometer in quadruplicate for each ligand dose. The bars in each histogram represent the mean±s.e. mean of n=4 experiments.
(§2) Each cell type was plated at an initial minimal confluency (10-20%) to allow for 5 days of normal continual cell growth that would not result in 100% cell confluency by day 5. Each ligand was incubated, in triplicate for every experimental concentration, with the cell monolayers for five days with replacement of the ligand every 12 h. At the end of the stimulation period the number of viable cells was estimated by their capacity to prevent uptake of Trypan Blue stain.

[4] = system: HEK293 cells stably expressing the Type I GnRHR (SCL60); test: Anti-proliferative effect on SCL60 cells, viable cell count after 5 days; assay type: cell-based, human; settings: 5 days continuous treatment, trypan blue exclusion
Procedure: An identical methodology of measuring cell growth was employed as in FIG. 1.
as §2
We further investigated the nature of the ligand-receptor specificity of the anti-proliferative effects of GnRH receptor systems by studying our ligand panel effects upon a model cell background, i.e. SCL60 HEK293 cells stably expressing the rat Type I GnRHR. […] We attribute this greater effect of the GnRHR ligands upon the SCL60 cells to the much greater level of receptor expression in the SCL60 cells.

[5] = system: ERK1/2; test: ERK1/2 phosphorylation immunoblot in JEG-3 cells; assay type: cell-based, human; settings: 100 nM, 10 minutes
[6] = system: ERK1/2; test: ERK1/2 phosphorylation immunoblot in BPH-1 cells; assay type: cell-based, human; settings: FIG. 5 panel c
Source text: The panel depicts a representative anti-phospho-ERK1/2 w-c lysate immunoblot of stimulated BPH-1 cell extracts. […] Each bar of the histogram represents the mean±s.e. mean of three to four experimental replicates. […] Panel c) depicts the extent of ERK1/2 activation in BPH-1 cells induced by stimulation with GnRH I, II, Ant 135-25 and Ant 135-18. […] Each bar of the histogram represents the mean± s.e. mean of three to four experimental replicates.

[7] = system: PLC-β; test: Inositol phosphate accumulation in BPH-1 cells; assay type: cell-based, human
Procedure: BPH-1 cells were pre-incubated with ^3H-myoinositol (1 μCi/ml) for 48 h prior to ligand stimulation (60 minutes). Ligand stimulated inositol phosphate production was measured in the presence of 10 mM LiCl. […] IP accumulation can be used as a read out/marker for Gαq activation since the activation of PLCβ is PTX-resistant.

[8] = molecular target: T1, marmoset Type II GnRH receptor (Callithrix jacchus, UniProt Q95MG6); test: Inositol phosphate accumulation in αT4-II cells; assay type: cell-based; settings: GnRH II 10 nM
T1 construct: expressed in transfected cells
T1 sequence (Q95MG6 1-380): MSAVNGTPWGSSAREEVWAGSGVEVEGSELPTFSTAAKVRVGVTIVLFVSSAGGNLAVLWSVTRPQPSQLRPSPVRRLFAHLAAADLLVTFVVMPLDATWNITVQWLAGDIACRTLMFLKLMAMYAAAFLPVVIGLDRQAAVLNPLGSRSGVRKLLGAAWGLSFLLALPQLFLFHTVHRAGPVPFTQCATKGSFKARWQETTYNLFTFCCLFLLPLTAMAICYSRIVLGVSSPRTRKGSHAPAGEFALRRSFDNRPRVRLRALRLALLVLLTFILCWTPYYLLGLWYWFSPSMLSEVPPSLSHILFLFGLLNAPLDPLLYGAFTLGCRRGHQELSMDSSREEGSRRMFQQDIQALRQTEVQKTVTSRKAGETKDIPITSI
Procedure: The histograms in panels a and b represent inositol phosphate accumulation data from HEK293 cells stably expressing the Type I GnRH receptor only (SCL60). […] In panels c and d, the liberated inositol phosphates generated were measured in the proto-gonadotrope cells (αT4) stably expressing the marmoset Type II GnRH receptor (designated αT4-II).
The ability of the four major agents under study at activating ectopically expressed Type I or Type II GnRHR were tested (FIG. 12). The classical signal transduction cascade activated by GnRHR stimulation is the Gαq-PLC-β cascade. Both Type I and II receptor can stimulate the Gαq-PLC type-G-protein and activate PLC-β which cleaves phosphatidylinositol bisphosphate (PIP2) into inositol trisphosphate (IP3), other lower inositol phosphates (IPn) and diacylglycerol (DAG). The major function of IP3 is to elevate intracellular Ca^2+ while DAG causes the activation of specific PKC (protein kinase C) isoforms.
Panels a and b of FIG. 12 depict the generation of free cytoplasmic ^3H-myo-inositols on the plasma membranes of HEK293 cells expressing the Type I GnRHR and of αT4 gonadotropes expressing the marmoset Type II GnRHR. Prior to agonist stimulation the respective cells were incubated in inositol-free growth media supplemented with 1 μCi/ml ^3H-myoinositol for 48 h. G protein coupled receptor (GPCR)-induced activation of PLC-β results in the cleavage of PIP2 (incorporating tritium ^3H) into free lower inositol phosphates (IPns).

[9] = system: human benign prostate hyperplastic (BPH-1) cells; test: Anti-proliferative effect on BPH-1 cells, viable cell count after 5 days; assay type: cell-based; settings: 5 days continuous treatment, trypan blue exclusion
Procedure: as §1, with “density BPH-1” for “density JEG-3”, “(b), Ant” for “(b), antagonist”, “or Ant” for “or antagonist”, “to RPMI 1640” for “to Dulbecco's modified Eagles”, “removed form” for “removed from”, “plates by” for “plates with”
as §2
Employing an identical growth and stimulation methodology to that described in the previous paragraph and in FIG. 1 we exposed the hyperplastic cell line, BPH-1, to the same panel of GnRH ligands and antagonistic analogues (FIG. 2). Reminiscent of FIG. 1 both endogenous GnRH agonists exert a similar mode of action with respect to their dose-dependent inhibition of BPH-1 cell growth over the five day stimulation period.

## CC(=O)N[C@H](Cc1ccc2ccccc2c1)C(=O)N[C@H](Cc1ccc(Cl)cc1)C(=O)N[C@H](Cc1cccnc1)C(=O)N[C@@H](CO)C(=O)N[C@@H](Cc1ccc(O)cc1)C(=O)N[C@H](CCCNC(N)=O)C(=O)N[C@@H](CC(C)C)C(=O)N[C@@H](CCCNC(=N)N)C(=O)N1CCC[C@H]1C(=O)N[C@H](C)C(N)=O [Cetrorelix] (Ac-[d2Nal][dPhe(4-Cl)][d3Pal]SY[dCit]LRP[dA]-NH2)
[1]
  potency at stimulating PTX-sensitive/Gαi-dependent MAPK isoform activation: significantly less potent than Ant 135-25
[2]
  doses required to attenuate growth of androgen-resistant tumor cells: considerably higher doses

## GnRH II: A second form of GnRH, identified in the mid-brain of many vertebrates ([pGlu]HWSHGWYPG-NH2; ends and bridges not checked; UniProt O43555 24-33, looked up)
[3]
  anti-proliferative effect (viable cell number): potent and dose-dependent anti-proliferative effect; also recorded: clear dose-response relationships for the inhibition of cellular growth
[4]
  anti-proliferative effect (viable cell number): greater anti-proliferative efficacy; also recorded: less potent than GnRH I at arresting the SCL60 cell growth
[5]
  extent of ERK1/2 phosphorylation (activation): less effective
[6]
  extent of ERK1/2 activation: A similar pattern to JEG-3 of ligand activation
[7]; 60 minutes, 10 mM LiCl, doses up to 50 μM
  inositol phosphate accumulation: poor activity; also recorded: small capacity to induce inositol phosphate accumulation
[8]
  agonistic activity: liberated inositol phosphates at marmoset Type II GnRH receptor: yields an increase in free tritiated inositol phosphates; also recorded: results in a similar action to GnRH I upon the SCL60 cells

## lysophosohatidic acid [LPA]
[3]
  anti-proliferative effect (viable cell number): failed to significantly attenuate the cell growth
[9]
  anti-proliferative effect (viable cell number): failed to significantly attenuate the cell growth
[7]; PTX 200 ng/ml 16 h, GnRH I 50 μM
  effect of pertussis toxin pre-incubation on induced inositol phosphate accumulation: insensitive to PTX pre-incubation; also recorded: completely insensitive to the pertussis toxin
